The subject of assay [1] is PfA-M1 and PfA-M17 (total aminopeptidase activity). Put plainly: Total aminopeptidase activity in the presence of 1 mM compound (fluorigenic substrate L-leucyl-7-amido-4-methylcoumarin). In kind it is biochemical, Plasmodium falciparum. To be noted: no compound control = 100% activity. An excerpt:
(§1) The expression and purification of PfA-M1 and PfA-M17 in Escherichia coli employed a two-step purification process of Ni-NTA-agarose column, followed by size exclusion chromatography on a Superdex 200 16/60 using an AKTAxpress high throughput chromatography system (http://proteinexpress.med.monash.edu.au/index.htm), as previously described. Compounds were purchased from Ambinter (France). Purity (90% or higher) of these compounds was confirmed by vendors. Aminopeptidase activity and K i values for both enzymes were determined as already described.
The top 12 hits identified in the virtual screen were evaluated for their ability to inhibit both PfA-M1 and PfA-M17 in vitro. We initially tested the total aminopeptidase activity (as reported by the fluorigenic substrate L-leucyl-7-amido-4-methylcoumarin) in the presence of 1 mM compound (Fig 3). In this screen, the “no compound” control was considered 100% activity and bestatin was included as an indicator/control for inhibition. From the results obtained, only compounds 4 (ZINC ID: 25108749) and 12 (ZINC ID: 4090432) were able to inhibit the activity of the enzymes to > 50%. […] The two inhibitory compounds were further analyzed to identify their effects on the individual aminopeptidases. To do this, we performed dose-response assays for each inhibitor with each enzyme, and then determined a K i via Dixon plots (Fig 4). […]

For another assay, the target named is T1, PfA-M1 (Plasmodium falciparum, UniProt O96935).
T1 construct: made in house; host or cells: Escherichia coli
T1 sequence (O96935 1-1085): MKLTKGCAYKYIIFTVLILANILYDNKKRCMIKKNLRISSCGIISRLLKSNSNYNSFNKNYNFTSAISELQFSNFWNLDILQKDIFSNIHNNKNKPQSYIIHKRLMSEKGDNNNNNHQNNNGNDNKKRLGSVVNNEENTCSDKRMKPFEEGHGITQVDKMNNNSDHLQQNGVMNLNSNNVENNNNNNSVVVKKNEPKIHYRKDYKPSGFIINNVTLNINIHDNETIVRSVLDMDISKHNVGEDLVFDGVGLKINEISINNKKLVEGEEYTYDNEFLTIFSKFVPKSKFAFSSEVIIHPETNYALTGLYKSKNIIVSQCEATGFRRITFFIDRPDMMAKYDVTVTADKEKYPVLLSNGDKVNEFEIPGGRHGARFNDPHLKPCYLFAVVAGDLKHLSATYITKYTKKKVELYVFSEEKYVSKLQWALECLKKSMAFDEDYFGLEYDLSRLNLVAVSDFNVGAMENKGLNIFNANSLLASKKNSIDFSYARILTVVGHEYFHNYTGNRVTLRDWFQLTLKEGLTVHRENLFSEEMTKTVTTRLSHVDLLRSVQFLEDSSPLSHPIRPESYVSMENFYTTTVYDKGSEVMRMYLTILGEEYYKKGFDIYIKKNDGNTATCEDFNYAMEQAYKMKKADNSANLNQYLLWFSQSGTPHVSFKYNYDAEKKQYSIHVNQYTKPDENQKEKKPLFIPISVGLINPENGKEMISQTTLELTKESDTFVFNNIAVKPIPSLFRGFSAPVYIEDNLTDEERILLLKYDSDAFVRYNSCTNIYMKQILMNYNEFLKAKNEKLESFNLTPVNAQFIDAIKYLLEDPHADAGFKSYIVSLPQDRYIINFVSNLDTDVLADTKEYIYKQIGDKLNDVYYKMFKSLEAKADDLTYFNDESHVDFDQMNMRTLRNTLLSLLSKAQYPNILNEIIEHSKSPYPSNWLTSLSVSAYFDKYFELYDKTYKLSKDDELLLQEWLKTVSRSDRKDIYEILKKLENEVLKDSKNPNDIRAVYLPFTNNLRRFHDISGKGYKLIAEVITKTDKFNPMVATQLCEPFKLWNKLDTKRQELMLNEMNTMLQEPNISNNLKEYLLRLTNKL
Nature of the assay: Dose-response aminopeptidase assay, Ki via Dixon plots, PfA-M1. The assay is classed as biochemical. The note with it: Dixon plot; substrate 20 and 40 μM.
From the text: as §1
(§2) The top 12 hits identified in the virtual screen were evaluated for their ability to inhibit both PfA-M1 and PfA-M17 in vitro. We initially tested the total aminopeptidase activity (as reported by the fluorigenic substrate L-leucyl-7-amido-4-methylcoumarin) in the presence of 1 mM compound (Fig 3). In this screen, the “no compound” control was considered 100% activity and bestatin was included as an indicator/control for inhibition. From the results obtained, only compounds 4 (ZINC ID: 25108749) and 12 (ZINC ID: 4090432) were able to inhibit the activity of the enzymes to > 50%. […] The two inhibitory compounds were further analyzed to identify their effects on the individual aminopeptidases. To do this, we performed dose-response assays for each inhibitor with each enzyme, and then determined a K i via Dixon plots (Fig 4). […] Compound 4 was a weaker inhibitor of both enzymes with K i’s in the micromolar range (K i = 30.0 μM for PfA-M1 and 0.7 μM for PfA-M17; Fig 4).
(§3) Fig 4 Dixon plots of 1/V (y axis) versus inhibitor concentration (x axis) for PfA-M1 (top panel) and PfA-M17 (bottom panel). For PfA-M1, substrate concentrations were 20 μM (blue) and 40 μM (red); inhibitor concentration in μM. For PfA-M17, substrate concentrations were 5 μM (magenta) and 10 μM (green); inhibitor concentration in μM or nM as indicated. The point of intersection (-K i) is indicated as a dotted line. (A) PfA-M1 and compound 4. (B) PfA-M1 and compound 12. (C) PfA-M17 and compound 4. (D) PfA-M17 and compound 12

The target of the next assay is T2, PfA-M17 (Plasmodium falciparum, UniProt Q8IL11).
T2 construct: made in house; host or cells: Escherichia coli
T2 sequence (Q8IL11 84-605 limits assumed): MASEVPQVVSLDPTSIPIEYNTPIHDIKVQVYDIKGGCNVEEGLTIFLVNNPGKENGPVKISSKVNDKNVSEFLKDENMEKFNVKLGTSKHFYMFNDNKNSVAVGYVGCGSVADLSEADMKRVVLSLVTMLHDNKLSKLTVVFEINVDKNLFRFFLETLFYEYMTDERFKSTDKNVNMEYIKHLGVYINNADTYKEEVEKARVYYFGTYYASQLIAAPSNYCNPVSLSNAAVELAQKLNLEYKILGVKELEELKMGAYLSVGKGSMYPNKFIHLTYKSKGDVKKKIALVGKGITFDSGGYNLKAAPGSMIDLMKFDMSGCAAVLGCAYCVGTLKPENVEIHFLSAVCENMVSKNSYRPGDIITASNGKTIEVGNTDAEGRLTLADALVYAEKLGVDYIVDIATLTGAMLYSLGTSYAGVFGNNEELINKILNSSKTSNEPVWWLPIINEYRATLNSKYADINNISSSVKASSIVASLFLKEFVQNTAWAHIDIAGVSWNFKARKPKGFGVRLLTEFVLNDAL
Nature of the assay: Dose-response aminopeptidase assay, Ki via Dixon plots, PfA-M17. The assay is classed as biochemical. The note with it: Dixon plot; substrate 5 and 10 μM.
From the text: as §1, §2, §3

As for `CC(C)CC(CP(=O)(O)C(N)c1ccccc1)C(=O)O` (stereo not shown) [Compound 12], the “inhibition of total aminopeptidase activity” value in assay [1] is on record as 98%. In addition, the Ki (usually a measure of affinity in units of concentration, obtained from inhibition or displacement) turned out to be 2.3 µM on PfA-M1 and 0.017 µM at PfA-M17.
For `O=C(O)C(CC1CCCO1)P(=O)(O)CN1CCCC1=O` (stereo not shown) [Compound 9], on PfA-M1, the “Ki PfA-M1” value is “n.i”. Moreover, on PfA-M17, the “Ki PfA-M17” value was “n.i”.
Consider `CC(CP(=O)(O)C(N)c1ccccc1)C(=O)O` (stereo not shown) [Compound 4, 3-{[amino(phenyl)methyl](hydroxy)phosphoryl}-methyl propanoic acid], for which the “inhibition of total aminopeptidase activity” value in assay [1] was determined as 95%. Also, the Ki at PfA-M1 came to 30 µM; at PfA-M17, 0.7 µM.
`CP(=O)(O)CCCCC(N)C(=O)O` (stereo not shown) [Compound 1]: on PfA-M1, the “Ki PfA-M1” value is listed as “n.i”. The “Ki PfA-M17” value on PfA-M17 is “n.i”.
As to `NC(=O)NC(CC(=O)O)C(=O)O` (stereo not shown) [Compound 10], at PfA-M1, the “Ki PfA-M1” value is listed as “n.i”. The “Ki PfA-M17” value on PfA-M17 is “n.i”.
As for `CC(CC(N)C(=O)O)C(=O)O` (stereo not shown) [Compound 11], the “Ki PfA-M1” value at PfA-M1 is reported as “n.i”. Besides, the “Ki PfA-M17” value at PfA-M17 is listed as “n.i”.
Consider `NCP(=O)(O)CC(CCCC(=O)O)C(=O)O` (stereo not shown) [Compound 3], for which the “Ki PfA-M1” value at PfA-M1 is reported as “n.i”. Besides, the “Ki PfA-M17” value at PfA-M17 is listed as “n.i”.
`O=C(O)C(Cc1ccco1)P(=O)(O)CN1CCCCC1` (stereo not shown) [Compound 6]: the “Ki PfA-M1” value at PfA-M1 is listed as “n.i”. For the same compound, the “Ki PfA-M17” value on PfA-M17 is reported as “n.i”.
For the compound `O=C(O)CCP(=O)(O)CN1CCCCC1` [Compound 8], the “Ki PfA-M1” value on PfA-M1 is “n.i”. Also, on PfA-M17, the “Ki PfA-M17” value is recorded as “n.i”.
As for `CCCN(CCC)CP(=O)(O)CCC(=O)O` [Compound 7], the “Ki PfA-M1” value on PfA-M1 was “n.i”. The “Ki PfA-M17” value on PfA-M17 is recorded as “n.i”.

(Values after PMC4583420, “Identification and Validation of a Potent Dual Inhibitor of the P. falciparum M1 and M17 Aminopeptidases Using Virtual Screening” (PLoS ONE, 2015).)
